Assay results taken from patent US12329762B2, “Pharmaceutical preparation for improving absorption and postprandial hypoglycemic action of insulin” (Eli Lilly and Company, priority 2015, dated 2025).

Experiments:
[1] = 8-hour euglycemic clamp, glucose infusion rate (pharmacodynamic profile) after sc lispro ± iloprost; format: in vivo, human; conditions: OT2D subjects with A1c>8%, sc lispro 10 or 30 U with vs without 1 nmol iloprost
From the text: Euglycemic clamp. Subjects were admitted to the Sherbrooke University Hospital Clinical Research Center (CRC) at 8 PM the evening prior to each study. An i.v. antecubital cannula was installed to allow venous sampling for immediate whole blood glucose level measurements by a glucose analyzer ([…] Glucometer, Abbott Diabetes Care Inc.) at 30-min intervals until glycemic target is reached and at 2-hour intervals thereafter. A second contralateral cannula was installed for continuous i.v. administration of regular insulin and glucose, as needed, and plasma glucose has been brought progressively into the normal target range of 5-7 mmol/L overnight and then kept at this level. Experiments started around 8 AM. Patients have been kept fasting (drinking water permitted) during the entire 8-hour clamp study. […] Plasma glucose levels were monitored every 5 min for the first 4 hours and at 10-min intervals thereafter. […] Subjects were allowed to leave when glucose levels were stabilised over 6 mmol/L. Plasma lispro was measured by an ultra-specific radioimmunoassay (Linco Research Inc.) Detection limit is 18 pmol/L, intra-assay CV is 2.5% in our hands (Gagnon-Auger M, et al. Diabetes Care 2010;33(12):2502-7). […] The fractional plasmatic lispro AUCs were calculated by the trapezoidal method. […]

[2] = 8-hour euglycemic clamp, plasma lispro (pharmacokinetic profile) after sc lispro ± iloprost; format: in vivo, human; conditions: OT2D subjects with A1c>8%, sc lispro 10 or 30 U with vs without 1 nmol iloprost
From the text: Euglycemic clamp. Subjects were admitted to the Sherbrooke University Hospital Clinical Research Center (CRC) at 8 PM the evening prior to each study. An i.v. antecubital cannula was installed to allow venous sampling for immediate whole blood glucose level measurements by a glucose analyzer (FreeStlyle Lite Glucometer, Abbott Diabetes Care Inc.) at 30-min intervals until glycemic target is reached and at 2-hour intervals thereafter. A second contralateral cannula was installed for continuous i.v. administration of regular insulin and glucose, as needed, and plasma glucose has been brought progressively into the normal target range of 5-7 mmol/L overnight and then kept at this level. Experiments started around 8 AM. Patients have been kept fasting (drinking water permitted) during the entire 8-hour clamp study. […] Plasma glucose levels were monitored every 5 min for the first 4 hours and at 10-min intervals thereafter. […] Subjects were allowed to leave when glucose levels were stabilised over 6 mmol/L. Plasma lispro was measured by an ultra-specific radioimmunoassay (Linco Research Inc.) Detection limit is 18 pmol/L, intra-assay CV is 2.5% in our hands (Gagnon-Auger M, et al. Diabetes Care 2010;33(12):2502-7). […]
The fractional plasmatic lispro AUCs were calculated by the trapezoidal method. […]

maximal plasma lispro concentrations ([2]; FIG. 5): rapidely increased
lispro absorption (fractional AUCs of plasmatic lispro, 10 to 40 min) ([2]; FIG. 7): accelerated
Structure (SMILES): CC#CCC(C)[C@H](O)/C=C/[C@@H]1[C@H]2C/C(=C/CCCC(=O)O)C[C@H]2C[C@H]1O (stereo partly shown) [iloprost]
maximal glucose infusion rates ([1]; FIG. 8): rapidely increased
hypoglycemic effect (early total glucose infusion, 30 to 60 min) ([1]; FIG. 9): accelerated
